Data reported in US20060069132A1, “Azolecarboxamide herbicides” (priority 2004, published 2006).

Experiments:
morningglory (IPOCO) = test: Test J Compounds 2 and 6 alone and in combination with other herbicides, foliage spray; assay type: in vivo, Ipomoea coccinea; set-up: key: 0 = no effect, 100 = complete control; settings: applied alone
Source text: Seeds of test plants consisting of barnyardgrass (ECHCG; Echinochloa crus-galli (L.) Beauv.), blackgrass (ALOMY; Alopecurus myosuroides Huds.), Surinam grass (BRADC; Urochloa decumbens (Staph) R. D. Webster, previously named Brachiaria decumbens Stapf), cocklebur (XANST, Xanthium strumarium L.), corn (ZEAMD, Zea mays L. cv. ‘Pioneer 33G26’), large crabgrass (DIGSA, Digitaria sanguinalis (L.) Scop.), giant foxtail (SETFA, Setaria faberi Herrm.), lambsquarters (CHEAL, Chenopodium album L.), morningglory (IPOCO, Ipomoea coccinea L.), pigweed (AMARE, Amaranthus retroflexus L.), velvetleaf (ABUTH, Abutilon theophrasti Medik.) wheat (TRZAS, Triticum aestivum L. cv. ‘Recital’) and wild oat (AVEFA, Avena fatua L.) were planted in Redi-Earth® planting medium (Scotts Company, 14111 Scottslawn Road, Marysville, Ohio 43041) comprising spaghnum peat moss and vermiculite. Seeds of small-seeded species were planted about 1 cm deep; larger seeds were planted about 2.5 cm deep. Plants were grown in a greenhouse using supplemental lighting to maintain a photoperiod of about 14 hours; daytime and nighttime temperatures were about 24-30° C. and 22-25° C., respectively. Balanced fertilizer was applied through the watering system. […] Also listed in Table J are the expected effects for the mixtures calculated using Colby's Equation.

wheat cv. Retical = test: Test H safening on wheat by naphthalic anhydride seed treatment, pre-/postemergence; assay type: in vivo, Triticum aestivum; set-up: key to Response of wheat, Without naphthalic anhydride seed treatment: 0 = no effect, 100 = complete plant death, vs untreated control
Protocol: This test evaluated the safening of compounds of the invention on wheat (Triticum aestivumL.) cv. ‘Retical’ by seed treatment with naphthalic anhydride. Some of the wheat seed was treated with napthalic anhydride as a 1% by weight seed dressing. The wheat seed were planted in pots containing pasteurized Sassafras sandy loam soil. For postemergence testing the plants were grown 8 days to the 2-leaf stage at time of treatment. Preemergence treatments were applied the same day that the seeds were planted. Treatments were applied by spraying the test compounds formulated in a non-phytotoxic solvent mixture, using a flat fan nozzle and a spray volume of 280 L/ha. The preemergence treatments were triply replicated and the results subsequently averaged. The pots were placed on a growth chamber bench using a complete randomized block design for the preemergence test except for the first replicate, which was unrandomized. The plants were grown in the growth chamber and watered as needed with a dilute nutrient solution containing 200 ppm of N. Illumination was provided by fluorescent lamps giving 200-300 μE/m^2/S of photosynthetically active radiation over a 14-hour photoperiod. The temperature was maintained at 23±2° C. during the day and 17±2° C. at night. The effects of the treatments were rated 25 days after preemergence treatment and 14 days after postemergence treatment. The plant response was visually rated in comparison to untreated controls using a scale of 0 to 100, with 0 representing no effect and 100 representing complete plant death. The results for the compounds tested preemergence are listed in Table H1, and the results for the compounds tested postemergence are listed in Table H2.

Surinam grass (BRADC) = test: Test J Compounds 2 and 6 alone and in combination with other herbicides, foliage spray; assay type: in vivo, Urochloa decumbens; set-up: key to BRADC Obsd.: 0 = no effect, 100 = complete control; settings: for BRADC Obsd.: applied alone; for observed effect of mixture compared with additive effect expected from Colby's Equation: Surinam grass, foliage spray, 15 days after treatment
Source text: Colby's Equation was used to calculate the expected additive herbicidal effect of the mixtures of Compound 6 with Harmony® Extra (i.e. a 2:1 mixture by weight of thifensulfuron-methyl and tribenuron-methyl). Colby's Equation (Colby, S. R. “Calculating Synergistic and Antagonistic Responses of Herbicide Combinations,” Weeds, 15(1), pp 20-22 (1967)) calculates the expected additive effect of herbicidal mixtures, and for two active ingredients is of the form: Pa+b=Pa+Pb−(PaPb/100) wherein • Pa+b is the percentage effect of the mixture expected from additive contribution of the individual components, • Pa is the observed percentage effect of the first active ingredient at the same use rate as in the mixture, and • Pb is the observed percentage effect of the second active ingredient at the same use rate as in the mixture.
Seeds of test plants consisting of barnyardgrass (ECHCG; Echinochloa crus-galli (L.) Beauv.), blackgrass (ALOMY; Alopecurus myosuroides Huds.), Surinam grass (BRADC; Urochloa decumbens (Staph) R. D. Webster, previously named Brachiaria decumbens Stapf), cocklebur (XANST, Xanthium strumarium L.), corn (ZEAMD, Zea mays L. cv. ‘Pioneer 33G26’), large crabgrass (DIGSA, Digitaria sanguinalis (L.) Scop.), giant foxtail (SETFA, Setaria faberi Herrm.), lambsquarters (CHEAL, Chenopodium album L.), morningglory (IPOCO, Ipomoea coccinea L.), pigweed (AMARE, Amaranthus retroflexus L.), velvetleaf (ABUTH, Abutilon theophrasti Medik.) wheat (TRZAS, Triticum aestivum L. cv. ‘Recital’) and wild oat (AVEFA, Avena fatua L.) were planted in Redi-Earth® planting medium (Scotts Company, 14111 Scottslawn Road, Marysville, Ohio 43041) comprising spaghnum peat moss and vermiculite. Seeds of small-seeded species were planted about 1 cm deep; larger seeds were planted about 2.5 cm deep. Plants were grown in a greenhouse using supplemental lighting to maintain a photoperiod of about 14 hours; daytime and nighttime temperatures were about 24-30° C. and 22-25° C., respectively. Balanced fertilizer was applied through the watering system. The plants were grown for 7 to 11 days so that at time of treatment the plants ranged in height from 2 to 18 cm (1- to 4-leaf stage). Treatments consisted of Compounds 2 and 6 (technical material), atrazine (90DF), terbacil (Sinbar® 80DF), hexazinone (Velpar® 75WG), diuron (Karmex® 80WP) and paraquat (Gramoxone® Extra, 37%) alone and in combination, suspended or dissolved in an aqueous solvent comprising a nonionic surfactant and applied as a foliage spray using a volume of 541 L/ha. Each treatment was triply replicated. […] Treated plants and controls were maintained in the greenhouse and watered as needed with care to not wet the foliage for the first 24 hours after treatment. The effects on the plants 15 days after treatment were visually compared to untreated controls. Plant response ratings, listed in Table J as the means of the thee replicates, are based on a scale of 0 to 100 where 0 is no effect and 100 is complete control. Also listed in Table J are the expected effects for the mixtures calculated using Colby's Equation.

pigweed = test: Test F pre-/postemergence herbicide test; assay type: in vivo, Amaranthus retroflexus
Source text: Seeds of plant species selected from annual blugrass (Poa annua L.), blackgrass (Alopecurus myosuroides Huds.), catchweed bedstraw (Gallium aparine L.), common chickweed (Stellaria media (L.) Vill./Cyr.), downy bromegrass (Bromus tectorum L.), green foxtail (Setaria viridis (L.) Beauv.), Italian ryegrass (Lolium multiflorum Lam.), kochia (Kochia scoparia (L.). Schrad.), lambsquarters (Chenopodium album L.), littleseed canarygrass (Phalaris minor Retz.), pigweed (Amaranthus retroflexus L.), Russian thistle (Salsola kali L. ssp. Ruthenica (Iljin) Soo), wild buckwheat (Polygonum convolvulus L.), wild mustard (Sinapis arvensis L.), wild oat (Avena fatua L.), windgrass (Apera spica-venti (L.) Beauv.), winter barley (Hordeum vulgare L.), and wheat (Triticum aestivum L.) were planted and treated preemergence with test chemicals formulated in a non-phytotoxic solvent mixture which included a surfactant.
At the same time, plants selected from these crop and weed species were treated with postemergence applications of some of the test chemicals formulated in the same manner. Plants ranged in height from 2 to 18 cm (1- to 4-leaf stage) for postemergence treatments. Treated plants and controls were maintained in a greenhouse for 12 to 14 days, after which time all species were compared to controls and visually evaluated. Plant response ratings, summarized in Table F, are based on a scale of 0 to 100 where 0 is no effect and 100 is complete control. A dash (-) response means no test result.

## CCn1nc(C(C)(C)C)cc1C(=O)Nc1cc(C(=O)N(C)C)ccc1F [Compound 6, N-[5-[(dimethylamino)carbonyl]-2-fluorophenyl]-3-(1,1-dimethylethyl)-1-ethyl-1H-pyrazole-5-carboxamide]
Morningglory (IPOCO); 62 g a.i./ha
  IPOCO Obsd.: 22
Morningglory (IPOCO); 125 g a.i./ha
  IPOCO Obsd.: 28
Wheat cv. Retical; postemergence, 62 g a.i./ha
  Response of wheat, With 1% naphthalic anhydride seed treatment: 65
  Response of wheat, Without naphthalic anhydride seed treatment: 75
Wheat cv. Retical; postemergence, 125 g a.i./ha
  Response of wheat, With 1% naphthalic anhydride seed treatment: 75
  Response of wheat, Without naphthalic anhydride seed treatment: 75
Wheat cv. Retical; preemergence, 62 g a.i./ha
  Response of wheat, With 1% naphthalic anhydride seed treatment: 77
  Response of wheat, Without naphthalic anhydride seed treatment: 99
Wheat cv. Retical; preemergence, 125 g a.i./ha
  Response of wheat, With 1% naphthalic anhydride seed treatment: 100
  Response of wheat, Without naphthalic anhydride seed treatment: 100
Surinam grass (BRADC); 62 g a.i./ha
  BRADC Obsd.: 15
Surinam grass (BRADC); 125 g a.i./ha
  BRADC Obsd.: 40
Surinam grass (BRADC); mixture with diuron
  observed effect of mixture compared with additive effect expected from Colby's Equation: greater than additive
Surinam grass (BRADC); mixture with diuron, listed as compound 6
  observed effect of mixture compared with additive effect expected from Colby's Equation: synergistic activity
Surinam grass (BRADC); mixture with hexazinone
  observed effect of mixture compared with additive effect expected from Colby's Equation: greater than additive
Surinam grass (BRADC); mixture with hexazinone, listed as compound 6
  observed effect of mixture compared with additive effect expected from Colby's Equation: synergistic activity
Surinam grass (BRADC); mixture with terbacil
  observed effect of mixture compared with additive effect expected from Colby's Equation: greater than additive

## CCn1nc(C(C)(C)C)cc1C(=O)Nc1cc(C(=O)OC(C)C)c(F)cc1F [Compound 248]
pigweed; Postemergence, 31 g ai/ha
  Plant response rating (0-100), Pigweed: 65
pigweed; Postemergence, 62 g ai/ha
  Plant response rating (0-100), Pigweed: 65
pigweed; Postemergence, 125 g ai/ha
  Plant response rating (0-100), Pigweed: 70
pigweed; Postemergence, 250 g ai/ha
  Plant response rating (0-100), Pigweed: 70
pigweed; Preemergence, 31 g ai/ha
  Plant response rating (0-100), Pigweed: 70
pigweed; Preemergence, 62 g ai/ha
  Plant response rating (0-100), Pigweed: 75
pigweed; Preemergence, 125 g ai/ha
  Plant response rating (0-100), Pigweed: 95
pigweed; Preemergence, 250 g ai/ha
  Plant response rating (0-100), Pigweed: 95
